The target in assay [1] is T1, Full length WRN protein (aa 2-1432) (Homo sapiens (Human), UniProt Q14191). Nature of the assay: WRN ATPase ADP-Glo biochemical assay, Assay Format A (10 μM ATP). Conditions: 0.25 nM WRN, 100 nM C6.18 ssDNA, 30 min preincubation, read-out: ATPase ADPGlo AC50 (uM)- Assay Format A. The method in brief: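 ADP-Glo luminescence measured hydrolysis of ATP by purified, baculovirus-expressed N-terminally tagged full-length WRN. Enzyme (0.5 nM) was preincubated 30 min with compound, then 200 nM ssDNA C6.18 plus 20 μM ATP were added (pre-mix levels) for 30 min at RT. IC50s come from four-parameter fits, geometric mean of at least two trials.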
On the technique in general: ADP-Glo first removes unused ATP, then detects ADP through luciferase.

The target in assay [2] is T1, Full length WRN protein (aa 2-1432). Briefly: WRN ATPase ADP-Glo biochemical assay, Assay Format B (100 μM ATP). Conditions: 0.25 nM WRN, 100 nM C6.18 ssDNA, 60 min preincubation, read-out: ATPase ADPGlo AC50 (uM)- Assay Format B.
Assay [3] relates to HCT116 cells. Briefly: HCT116 (MSI) 7 day viability, CellTiter Glo. Conditions: 7 days, read-out: HCT116 (MSI) Viability 7 Day Abs AC50. It counts as cell-based. The method in brief: (§1)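 HCT116 seeded at 50 cells/well and HT29 at 500 cells/well onto compound plates (10-point 3-fold dilutions from 10 mM DMSO stock), incubated 7 days at 37 °C, 5% CO2.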
On the technique in general: In ATP-based viability assays light output follows the ATP content of the culture.

Assay [4] relates to HT29 cells. Briefly: HT29 (MSS) 7 day viability, CellTiter Glo. Conditions: 7 days, read-out: HT29 (MSS) Viability 7 Day CTGAbs AC50. It counts as cell-based. Put shortly: as §1

Structures are written as SMILES. Like-named read-outs stand apart in the source and are kept apart here.

T1 sequence (Q14191 2-1432): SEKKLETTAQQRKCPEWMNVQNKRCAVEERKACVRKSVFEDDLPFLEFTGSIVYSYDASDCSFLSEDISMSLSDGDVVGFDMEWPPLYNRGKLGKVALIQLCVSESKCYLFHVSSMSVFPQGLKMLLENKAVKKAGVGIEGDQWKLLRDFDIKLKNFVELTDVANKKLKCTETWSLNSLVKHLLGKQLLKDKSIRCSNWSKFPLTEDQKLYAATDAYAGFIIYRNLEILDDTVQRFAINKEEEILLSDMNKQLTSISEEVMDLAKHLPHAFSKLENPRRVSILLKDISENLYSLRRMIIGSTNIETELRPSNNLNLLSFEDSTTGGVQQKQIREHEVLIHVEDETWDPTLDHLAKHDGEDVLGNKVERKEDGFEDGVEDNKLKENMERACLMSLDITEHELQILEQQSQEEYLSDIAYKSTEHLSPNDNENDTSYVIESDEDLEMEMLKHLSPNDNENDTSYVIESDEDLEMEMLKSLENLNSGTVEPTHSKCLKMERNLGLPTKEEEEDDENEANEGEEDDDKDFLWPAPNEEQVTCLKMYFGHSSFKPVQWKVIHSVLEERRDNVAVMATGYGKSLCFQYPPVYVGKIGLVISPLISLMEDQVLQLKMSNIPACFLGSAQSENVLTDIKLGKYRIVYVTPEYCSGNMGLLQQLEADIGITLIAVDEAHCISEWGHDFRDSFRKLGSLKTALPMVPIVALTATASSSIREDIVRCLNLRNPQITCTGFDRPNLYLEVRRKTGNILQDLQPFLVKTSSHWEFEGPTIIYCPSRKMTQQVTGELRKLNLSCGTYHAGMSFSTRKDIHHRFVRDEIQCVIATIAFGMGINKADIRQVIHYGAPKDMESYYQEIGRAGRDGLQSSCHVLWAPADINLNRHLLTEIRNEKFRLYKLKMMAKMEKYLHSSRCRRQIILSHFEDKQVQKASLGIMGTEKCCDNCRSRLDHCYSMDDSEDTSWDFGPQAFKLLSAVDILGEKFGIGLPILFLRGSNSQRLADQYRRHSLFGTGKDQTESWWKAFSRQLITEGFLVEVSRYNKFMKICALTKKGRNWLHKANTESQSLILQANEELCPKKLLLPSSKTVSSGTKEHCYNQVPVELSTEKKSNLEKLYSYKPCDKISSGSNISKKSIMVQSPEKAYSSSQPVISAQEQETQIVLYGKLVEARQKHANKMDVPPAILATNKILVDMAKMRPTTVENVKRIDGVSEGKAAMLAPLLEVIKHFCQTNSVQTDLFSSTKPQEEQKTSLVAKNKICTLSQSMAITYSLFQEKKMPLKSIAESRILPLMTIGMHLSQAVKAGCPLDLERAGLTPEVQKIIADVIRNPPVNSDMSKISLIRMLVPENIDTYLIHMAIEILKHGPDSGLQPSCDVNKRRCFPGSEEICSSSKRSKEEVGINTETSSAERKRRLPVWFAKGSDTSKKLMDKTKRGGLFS

As for `C=CC(=O)N1CCc2nn(-c3ccc(C4CCC4)c(F)c3)c3c2C(C1)N(C(=O)c1cnc(C(F)(F)F)c(O)c1)CC3` (stereo not shown) [Compound 66, 1-(2-(4-cyclobutyl-3-fluorophenyl)-5-(5-hydroxy-6-(trifluoromethyl)nicotinoyl)-2,3,4,5,5a,6,8,9-octahydro-7H-1,2,5,7-tetraazabenzo[cd]azulen-7-yl)prop-2-en-1-one], the AC50 in assay [1] was less than 0.0015 µM; in assay [2], 0.005 to 0.015 µM; in assay [3] (Homo sapiens, HCT-116, 168 h), 1 to 100 nM; in assay [4] (Homo sapiens, HT-29, 168 h) it was greater than 3000 nM.
The like results for `C=CC(=O)N1CCc2nn(-c3ccc(C4CC4)cc3)c3c2C(C1)N(C(=O)c1ccc(C(F)(F)F)nc1N)CC3` (stereo not shown) [Compound 67, 1-(5-(2-amino-6-(trifluoromethyl)nicotinoyl)-2-(4-cyclopropylphenyl)-2,3,4,5,5a,6,8,9-octahydro-7H-1,2,5,7-tetraazabenzo[cd]azulen-7-yl)prop-2-en-1-one] were, in that order, 0.0015 to 0.005 µM, 0.005 to 0.015 µM, 1 to 100 nM and greater than 3000 nM.
Take `C=CC(=O)N1CCc2nn(-c3ccc(C4CC4)cc3)c3c2C(C1)N(C(=O)c1ccn(CC(F)(F)F)c(=O)c1)CC3` (stereo not shown) [Compound 68, 4-(7-acryloyl-2-(4-cyclopropylphenyl)-3,4,5,5a,6,7,8,9-octahydro-2H-1,2,5,7-tetraazabenzo[cd]azulene-5-carbonyl)-1-(2,2,2-trifluoroethyl)pyridin-2(1H)-one]: the AC50 is greater than 0.055 µM in assay [1]; greater than 0.055 µM in assay [2]; greater than 1000 nM in assay [3] (Homo sapiens, HCT-116, 168 h); greater than 3000 nM in assay [4] (Homo sapiens, HT-29, 168 h).
As to `C=CC(=O)N1CCc2nn(-c3ccc(C4CC4)cc3)c3c2C(C1)N(C(=O)c1ccc(OC(F)F)nc1)CC3` (stereo not shown) [Compound 69, 1-(2-(4-cyclopropylphenyl)-5-(6-(difluoromethoxy)nicotinoyl)-2,3,4,5,5a,6,8,9-octahydro-7H-1,2,5,7-tetraazabenzo[cd]azulen-7-yl)prop-2-en-1-one], the AC50 in assay [1] was 0.005 to 0.015 µM; in assay [2], 0.015 to 0.055 µM; in assay [3] (Homo sapiens, HCT-116, 168 h), 100 to 250 nM; in assay [4] (Homo sapiens, HT-29, 168 h), greater than 3000 nM.
Consider `C=CC(=O)N1CCc2nn(-c3ccc(C4CC4)cc3)c3c2C(C1)N(C(=O)c1ccc2c(c1)[nH]c(=O)n2C)CC3` (stereo not shown) [Compound 70, 5-(7-acryloyl-2-(4-cyclopropylphenyl)-3,4,5,5a,6,7,8,9-octahydro-2H-1,2,5,7-tetraazabenzo[cd]azulene-5-carbonyl)-1-methyl-1,3-dihydro-2H-benzo[d]imidazol-2-one], for which the AC50 in assay [1] is greater than 0.055 µM; in assay [2], greater than 0.055 µM; in assay [3] (Homo sapiens, HCT-116, 168 h), greater than 1000 nM; in assay [4] (Homo sapiens, HT-29, 168 h) it was greater than 3000 nM.
In the case of `C=CC(=O)N1CC(OC)c2nn(-c3ccc(C4CCC4)cc3O)c3c2C(C1)N(C(=O)c1cnc(C(F)(F)F)c(O)c1)CC3` (stereo not shown) [Compound 72, 1-(2-(4-cyclobutyl-2-hydroxyphenyl)-5-(5-hydroxy-6-(trifluoromethyl)nicotinoyl)-9-methoxy-2,3,4,5,5a,6,8,9-octahydro-7H-1,2,5,7-tetraazabenzo[cd]azulen-7-yl)prop-2-en-1-one], the AC50 is less than 0.0015 µM in assay [1]; 0.0015 to 0.005 µM in assay [2]; 1 to 100 nM in assay [3] (Homo sapiens, HCT-116, 168 h); greater than 3000 nM in assay [4] (Homo sapiens, HT-29, 168 h).
In the case of `C=CC(=O)N1CCc2nn(-c3ccc(C(C)C)cc3)c3c2C(C1)N(C(=O)c1ccc(Br)c2ncn(CCOC)c12)CC3` (stereo not shown) [Compound 73, 1-(5-(4-bromo-1-(2-methoxyethyl)-1H-benzo[d]imidazole-7-carbonyl)-2-(4-isopropylphenyl)-2,3,4,5,5a,6,8,9-octahydro-7H-1,2,5,7-tetraazabenzo[cd]azulen-7-yl)prop-2-en-1-one], the AC50 is 0.0015 to 0.005 µM in assay [1]; 0.015 to 0.055 µM in assay [2]; 100 to 250 nM in assay [3] (Homo sapiens, HCT-116, 168 h); greater than 3000 nM in assay [4] (Homo sapiens, HT-29, 168 h).
As for `C=CC(=O)N1CCc2nn(-c3ccc(C4CCC4)cc3O)c3c2C(C1)N(C(=O)c1ccc(OC(F)F)nc1)CC3` (stereo not shown) [Compound 74, 1-(2-(4-cyclobutyl-2-hydroxyphenyl)-5-(6-(difluoromethoxy)nicotinoyl)-2,3,4,5,5a,6,8,9-octahydro-7H-1,2,5,7-tetraazabenzo[cd]azulen-7-yl)prop-2-en-1-one], the AC50 was less than 0.0015 µM in assay [1]; 0.005 to 0.015 µM in assay [2]; 1 to 100 nM in assay [3] (Homo sapiens, HCT-116, 168 h); greater than 3000 nM in assay [4] (Homo sapiens, HT-29, 168 h).
Take `C=CC(=O)N1CCc2nn(-c3ccc(C4CCC4)cc3O)c3c2C(C1)N(C(=O)c1ccc(Br)c2[nH]c(CO)nc12)CC3` (stereo not shown) [Compound 75, 1-(5-(7-bromo-2-(hydroxymethyl)-1H-benzo[d]imidazole-4-carbonyl)-2-(4-cyclobutyl-2-hydroxyphenyl)-2,3,4,5,5a,6,8,9-octahydro-7H-1,2,5,7-tetraazabenzo[cd]azulen-7-yl)prop-2-en-1-one]: the AC50 in assay [1] is less than 0.0015 µM; in assay [2], 0.0015 to 0.005 µM; in assay [3] (Homo sapiens, HCT-116, 168 h), 1 to 100 nM; in assay [4] (Homo sapiens, HT-29, 168 h), greater than 3000 nM.
In the case of `C=CC(=O)N1CCc2nn(-c3ccc(C(C)C)cc3)c3c2C(C1)N(C(=O)c1ccc(Br)c2ncn(CC4CCO4)c12)CC3` (stereo not shown) [Compound 82, 1-(5-(4-bromo-1-((oxetan-2-yl)methyl)-1H-benzo[d]imidazole-7-carbonyl)-2-(4-isopropylphenyl)-2,3,4,5,5a,6,8,9-octahydro-7H-1,2,5,7-tetraazabenzo[cd]azulen-7-yl)prop-2-en-1-one], the AC50 in assay [1] was 0.005 to 0.015 µM; in assay [2], greater than 0.055 µM; in assay [3] (Homo sapiens, HCT-116, 168 h) it was 500 to 1000 nM; in assay [4] (Homo sapiens, HT-29, 168 h), greater than 3000 nM.
`C=CC(=O)N1CCc2nn(-c3ccc(C(C)C)cc3)c3c2C(C1)N(C(=O)c1ccc(Br)c2ncn(CC4CCO4)c12)CC3` (stereo not shown) [Compound 83, 1-(5-(4-bromo-1-((oxetan-2-yl)methyl)-1H-benzo[d]imidazole-7-carbonyl)-2-(4-isopropylphenyl)-2,3,4,5,5a,6,8,9-octahydro-7H-1,2,5,7-tetraazabenzo[cd]azulen-7-yl)prop-2-en-1-one]: the half-maximal activity concentration (AC50) in assay [1] was 0.005 to 0.015 µM; in assay [2] it was greater than 0.055 µM; in assay [3] it was 500 to 1000 nM; in assay [4], greater than 3000 nM.
`C=CC(=O)N1CCc2nn(-c3ccc(C45CC(C4)C5)c(F)c3)c3c2C(C1)N(C(=O)c1ccc(Br)c2[nH]cnc12)CC3` (stereo not shown) [Compound 84, 1-(2-(4-(bicyclo[1.1.1]pentan-1-yl)-3-fluorophenyl)-5-(7-bromo-1H-benzo[d]imidazole-4-carbonyl)-2,3,4,5,5a,6,8,9-octahydro-7H-1,2,5,7-tetraazabenzo[cd]azulen-7-yl)prop-2-en-1-one]: the AC50 in assay [1] is 0.0015 to 0.005 µM; in assay [2], 0.015 to 0.055 µM; in assay [3] (Homo sapiens, HCT-116, 168 h), 1 to 100 nM; in assay [4] (Homo sapiens, HT-29, 168 h), greater than 3000 nM.
The matching figures for `C=CC(=O)N1CCc2nc(-c3ccc(C4CCC4)cc3)n3c2C(C1)N(C(=O)c1cnc(C(F)(F)F)c(O)c1)CC3` (stereo not shown) [Compound 86, 1-(2-(4-cyclobutylphenyl)-5-(5-hydroxy-6-(trifluoromethyl)nicotinoyl)-4,5,5a,6,8,9-hexahydro-1,2a,5,7-tetraazabenzo[cd]azulen-7(3H)-yl)prop-2-en-1-one]: less than 0.0015 µM, 0.015 to 0.055 µM, 250 to 500 nM and greater than 3000 nM.

In general, AC50 refers to the midpoint of the concentration-response curve, whichever way the signal moves.

The values are drawn from patent US20250346600A1, “TRICYCLIC DERIVATIVES AND RELATED USES” (MOMA Therapeutics, Inc., priority 2023, published 2025).
